# Read-outs that look alike come from different tables or passages of the source.
# Experiment: Tissue distribution after single oral dose
# Format: in vivo, mice
# Settings: oral 500 mg·kg^−1, female mice; for concentration at 1 h / concentration at 4 h / concentration at 8 h / concentration at 12 h / concentration at 20 h / concentration at 30 h: KM, mouse
# Description: The animals and treatment methods were the same as in the pharmacokinetic studies. Afterwards, the biological samples (n = 6 per group) were collected at 1, 4, 8, 12, 20, and 30 h, and the tissues including heart, liver, spleen, lung, kidney, stomach, intestine, brain, muscle (hind limb), fat (white adipose tissue ), reproductive organs (uterus, fallopian tube and ovary) stomach and its contents, and intestine and its contents, and the blood samples were simultaneously collected. All the tissues were washed with cold physiological saline (4 °C), excess fluid blotted, accurately weighed, and subjected to the processing as described in the sample preparation. QC samples and standard curve series solutions were prepared in the same way of blank gastrointestinal contents and livers, respectively. The concentrations of HQC, MQC, and LQC in mice tissues were 10, 1, and 0.1 μM·L^−1, respectively, and the concentrations of standard curve series solutions were 50, 25, 10, 5, 2.5, 1, 0.5, 0.25, 0.1, and 0.005 μM·L^−1 for high and low concentrations of standard curves.
compound,measurement,setting,value
"CC(C)=C/C=C/[C@H](C)[C@H]1CC[C@]2(C)C[C@@H]3C(C)=CC(=O)[C@H]3/C(C=O)=C\C[C@@H]12 [MHO7, 6-epi-ophiobolin G]",Concentration in Brain,1 h,0.95 ± 0.80 µg/g
same,Concentration in Liver,1 h,3.01 ± 1.53 µg/g
same,Concentration in Reproductive organs,1 h,0.88 ± 0.68 µg/g
same,Concentration in Fat,4 h,5.20 ± 3.47 µg/g
same,Concentration in Liver,4 h,1.64 ± 1.09 µg/g
same,Concentration in Reproductive organs,4 h,2.29 ± 1.80 µg/g
same,Concentration in Fat,8 h,11.15 ± 8.87 µg/g
same,Concentration in Kidney,8 h,1.66 ± 0.74 µg/g
same,Concentration in Reproductive organs,8 h,23.90 ± 11.33 µg/g
same,Concentration in Kidney,12 h,8.16 ± 6.23 µg/g
same,Concentration in Lung,12 h,2.34 ± 1.91 µg/g
same,Concentration in Reproductive organs,12 h,13.69 ± 10.29 µg/g
same,Concentration in Reproductive organs,20 h,1.46 ± 1.23 µg/g
same,Concentration in Reproductive organs,30 h,0.36 ± 0.46 µg/g
same,concentration at 1 h,"brain, 1 h, read-out: Concentration in Brain",950 ± 800 ng/g
same,concentration at 4 h,"brain, 4 h, read-out: Concentration in Brain",480 ± 330 ng/g
same,concentration at 8 h,"brain, 8 h, read-out: Concentration in Brain",500 ± 150 ng/g
same,concentration at 12 h,"brain, 12 h, read-out: Concentration in Brain",180 ± 110 ng/g
same,concentration at 20 h,"brain, 20 h, read-out: Concentration in Brain",100 ± 50 ng/g
same,concentration at 30 h,"brain, 30 h, read-out: Concentration in Brain",10 ± 4 ng/g
same,concentration at 1 h,"fat (white adipose tissue), 1 h, read-out: Concentration in Fat",740 ± 410 ng/g
same,concentration at 4 h,"fat (white adipose tissue), 4 h, read-out: Concentration in Fat",5200 ± 3470 ng/g
same,concentration at 8 h,"fat (white adipose tissue), 8 h, read-out: Concentration in Fat",11200 ± 8870 ng/g
same,concentration at 12 h,"fat (white adipose tissue), 12 h, read-out: Concentration in Fat",740 ± 700 ng/g
same,concentration at 20 h,"fat (white adipose tissue), 20 h, read-out: Concentration in Fat",340 ± 250 ng/g
same,concentration at 30 h,"fat (white adipose tissue), 30 h, read-out: Concentration in Fat",180 ± 160 ng/g
same,concentration at 1 h,"heart, 1 h, read-out: Concentration in Heart",60 ± 37 ng/g
same,concentration at 4 h,"heart, 4 h, read-out: Concentration in Heart",850 ± 510 ng/g
same,concentration at 8 h,"heart, 8 h, read-out: Concentration in Heart",670 ± 480 ng/g
same,concentration at 12 h,"heart, 12 h, read-out: Concentration in Heart",640 ± 300 ng/g
same,concentration at 20 h,"heart, 20 h, read-out: Concentration in Heart",40 ± 20 ng/g
same,concentration at 30 h,"heart, 30 h, read-out: Concentration in Heart",80 ± 10 ng/g
same,concentration at 1 h,"kidney, 1 h, read-out: Concentration in Kidney",110 ± 60 ng/g
same,concentration at 4 h,"kidney, 4 h, read-out: Concentration in Kidney",1630 ± 920 ng/g
same,concentration at 8 h,"kidney, 8 h, read-out: Concentration in Kidney",1660 ± 740 ng/g
same,concentration at 12 h,"kidney, 12 h, read-out: Concentration in Kidney",8160 ± 6230 ng/g
same,concentration at 20 h,"kidney, 20 h, read-out: Concentration in Kidney",390 ± 90 ng/g
same,concentration at 30 h,"kidney, 30 h, read-out: Concentration in Kidney",70 ± 10 ng/g
same,concentration at 1 h,"liver, 1 h, read-out: Concentration in Liver",3010 ± 1530 ng/g
same,concentration at 4 h,"liver, 4 h, read-out: Concentration in Liver",1640 ± 1090 ng/g
same,concentration at 8 h,"liver, 8 h, read-out: Concentration in Liver",180 ± 220 ng/g
same,concentration at 12 h,"liver, 12 h, read-out: Concentration in Liver",490 ± 370 ng/g
same,concentration at 20 h,"liver, 20 h, read-out: Concentration in Liver",60 ± 50 ng/g
same,concentration at 30 h,"liver, 30 h, read-out: Concentration in Liver",10 ± 10 ng/g
same,concentration at 1 h,"lung, 1 h, read-out: Concentration in Lung",430 ± 180 ng/g
same,concentration at 4 h,"lung, 4 h, read-out: Concentration in Lung",1060 ± 450 ng/g
same,concentration at 8 h,"lung, 8 h, read-out: Concentration in Lung",820 ± 710 ng/g
same,concentration at 12 h,"lung, 12 h, read-out: Concentration in Lung",2340 ± 1910 ng/g
same,concentration at 20 h,"lung, 20 h, read-out: Concentration in Lung",160 ± 40 ng/g
same,concentration at 30 h,"lung, 30 h, read-out: Concentration in Lung",80 ± 20 ng/g
same,concentration at 1 h,"muscle (hind limb), 1 h, read-out: Concentration in Muscle",310 ± 220 ng/g
same,concentration at 4 h,"muscle (hind limb), 4 h, read-out: Concentration in Muscle",970 ± 480 ng/g
same,concentration at 8 h,"muscle (hind limb), 8 h, read-out: Concentration in Muscle",640 ± 370 ng/g
same,concentration at 12 h,"muscle (hind limb), 12 h, read-out: Concentration in Muscle",1420 ± 800 ng/g
same,concentration at 20 h,"muscle (hind limb), 20 h, read-out: Concentration in Muscle",170 ± 100 ng/g
same,concentration at 30 h,"muscle (hind limb), 30 h, read-out: Concentration in Muscle",20 ± 3 ng/g

# Source: paper PMC6950057, “Toxicity, Pharmacokinetics, and Gut Microbiome of Oral Administration of Sesterterpene MHO7 Derived from a Marine Fungus” (Marine Drugs, 2019)
